Test results: ChEMBL document CHEMBL4390652, “Design, biological evaluation and X-ray crystallography of nanomolar multifunctional ligands targeting simultaneously acetylcholinesterase and glycogen synthase kinase-3” (Eur J Med Chem, 2019)

How the values were obtained:
[1] = biological target: Serine/threonine-protein kinase pim-2 (Homo sapiens) (UniProt Q9P1W9); assay: Binding affinity to wild-type human partial length PIM2 (M1 to E291 residues) expressed in bacterial expression system assessed as residual binding level at 10 uM by Kinomescan method relative to control
[2] = biological target: Interferon-induced, double-stranded RNA-activated protein kinase (Homo sapiens) (UniProt P19525); assay: Binding affinity to wild-type human partial length PRKR (F247 to C551 residues) expressed in bacterial expression system assessed as residual binding level at 10 uM by Kinomescan method relative to control
[3] = tested on: Tyrosine-protein kinase ABL1 (Homo sapiens), P00519 [T315I]; assay: Binding affinity to human non-phosphorylated ABL1 T315I mutant (S229 to K512 residues) expressed in mammalian expression system assessed as residual binding level at 10 uM by Kinomescan method relative to control
[4] = biological target: Uncharacterized serine/threonine-protein kinase SBK3 (Homo sapiens) (UniProt P0C264); assay: Binding affinity to wild-type human partial length SgK110 (L22 to R329 residues) expressed in bacterial expression system assessed as residual binding level at 10 uM by Kinomescan method relative to control
[5] = tested on: Phosphatidylinositol 4,5-bisphosphate 3-kinase catalytic subunit alpha isoform (Homo sapiens), P42336 [H1047Y]; assay: Binding affinity to human partial length PIK3CA H1047Y mutant (R108 to N1068 residues) expressed in mammalian expression system assessed as residual binding level at 10 uM by Kinomescan method relative to control
[6] = biological target: Mitogen-activated protein kinase 13 (Homo sapiens) (UniProt O15264); assay: Binding affinity to wild-type human full length p38-delta (M1 to L365 residues) expressed in bacterial expression system assessed as residual binding level at 10 uM by Kinomescan method relative to control
MDCK-MDR1 = assay: Cytotoxicity against MDCK2-MDR1 cells assessed as reduction in cell viability at 75 uM incubated for 2 hrs by MTT assay; type: ADME, cell-based, Canis lupus familiaris; conditions: dog, mdck-mdr1, 2 h
[7] = biological target: Ephrin type-B receptor 1 (Homo sapiens) (UniProt P54762); assay: Binding affinity to wild-type human partial length EPHB1 (P589 to T911 residues) expressed in bacterial expression system assessed as residual binding level at 10 uM by Kinomescan method relative to control
[8] = biological target: Rho-associated protein kinase 1 (Homo sapiens) (UniProt Q13464); assay: Binding affinity to wild-type human partial length ROCK1 (M1 to R415 residues) expressed in mammalian expression system assessed as residual binding level at 10 uM by Kinomescan method relative to control
[9] = biological target: STE20-like serine/threonine-protein kinase (Homo sapiens) (UniProt Q9H2G2); assay: Binding affinity to wild-type human partial length SLK (S14 to A307 residues) expressed in bacterial expression system assessed as residual binding level at 10 uM by Kinomescan method relative to control
[10] = tested on: ALK tyrosine kinase receptor (Homo sapiens), Q9UM73 [C1156Y]; assay: Binding affinity to wild-type human partial length ALK C1156Y mutant (I1088 to E1409 residues) expressed in mammalian expression system assessed as residual binding level at 10 uM by Kinomescan method relative to control
[11] = biological target: Activin receptor type-2B (Homo sapiens) (UniProt Q13705); assay: Binding affinity to wild-type human ACVR2B (H169 to D504 residues) expressed in bacterial expression system assessed as residual binding level at 10 uM by Kinomescan method relative to control
[12] = tested on: Tyrosine-protein kinase ABL1 (Homo sapiens), P00519 [F317L]; assay: Binding affinity to human non-phosphorylated ABL1 F317L mutant (S229 to K512 residues) expressed in mammalian expression system assessed as residual binding level at 10 uM by Kinomescan method relative to control
[13] = biological target: Serine/threonine-protein kinase Nek3 (Homo sapiens) (UniProt P51956); assay: Binding affinity to wild-type human full length NEK3 (M1 to R506 residues) expressed in mammalian expression system assessed as residual binding level at 10 uM by Kinomescan method relative to control
[14] = biological target: Cyclin-dependent kinase 11A (Homo sapiens) (UniProt Q9UQ88); assay: Binding affinity to wild-type human partial length CDC2L2 (D391 to K730 residues) expressed in bacterial expression system assessed as residual binding level at 10 uM by Kinomescan method relative to control
[15] = biological target: Atypical kinase COQ8B, mitochondrial (Homo sapiens) (UniProt Q96D53); assay: Binding affinity to wild-type human full length ADCK4 (M1 to S544 residues) expressed in bacterial expression system assessed as residual binding level at 10 uM by Kinomescan method relative to control
[16] = biological target: Ribosomal protein S6 kinase alpha-3 (Homo sapiens) (UniProt P51812); assay: Binding affinity to wild-type human partial length N-terminal RSK2 kinase domain 1 (M1 to D394 residues) expressed in mammalian expression system assessed as residual binding level at 10 uM by Kinomescan method relative to control
[17] = biological target: Tyrosine-protein kinase SYK (Homo sapiens) (UniProt P43405); assay: Binding affinity to wild-type human partial length SYK (D354 to N635 residues) expressed in bacterial expression system assessed as residual binding level at 10 uM by Kinomescan method relative to control
[18] = biological target: BDNF/NT-3 growth factors receptor (Homo sapiens) (UniProt Q16620); assay: Binding affinity to wild-type human partial length TRKB (Q547 to G838 residues) expressed in mammalian expression system assessed as residual binding level at 10 uM by Kinomescan method relative to control
[19] = biological target: Cyclin-dependent kinase 18 (Homo sapiens) (UniProt Q07002); assay: Binding affinity to wild-type human full length PCTK3 (M3 to F474 residues) expressed in bacterial expression system assessed as residual binding level at 10 uM by Kinomescan method relative to control
[20] = biological target: Phosphatidylinositol 4-phosphate 5-kinase type-1 gamma (Homo sapiens) (UniProt O60331); assay: Binding affinity to wild-type human partial length PIP5K1C (M1 to T668 residues) expressed in mammalian expression system assessed as residual binding level at 10 uM by Kinomescan method relative to control
[21] = biological target: cAMP-dependent protein kinase catalytic subunit beta (Homo sapiens) (UniProt P22694); assay: Binding affinity to wild-type human full length PKAC-beta (M1 to F351 residues) expressed in bacterial expression system assessed as residual binding level at 10 uM by Kinomescan method relative to control
[22] = biological target: Phosphorylase b kinase gamma catalytic chain, skeletal muscle/heart isoform (Homo sapiens) (UniProt Q16816); assay: Binding affinity to wild-type human full length PHKG1 (M1 to Y387 residues) expressed in bacterial expression system assessed as residual binding level at 10 uM by Kinomescan method relative to control
[23] = biological target: Leucine-rich repeat serine/threonine-protein kinase 2 (Homo sapiens) (UniProt Q5S007); assay: Binding affinity to wild-type human partial length LRRK2 (H970 to E2527 residues) expressed in mammalian expression system assessed as residual binding level at 10 uM by Kinomescan method relative to control

Phosphatidylinositol 4-phosphate 5-kinase type-1 gamma (Homo sapiens), sequence (O60331 whole entry, the tested form may be a part): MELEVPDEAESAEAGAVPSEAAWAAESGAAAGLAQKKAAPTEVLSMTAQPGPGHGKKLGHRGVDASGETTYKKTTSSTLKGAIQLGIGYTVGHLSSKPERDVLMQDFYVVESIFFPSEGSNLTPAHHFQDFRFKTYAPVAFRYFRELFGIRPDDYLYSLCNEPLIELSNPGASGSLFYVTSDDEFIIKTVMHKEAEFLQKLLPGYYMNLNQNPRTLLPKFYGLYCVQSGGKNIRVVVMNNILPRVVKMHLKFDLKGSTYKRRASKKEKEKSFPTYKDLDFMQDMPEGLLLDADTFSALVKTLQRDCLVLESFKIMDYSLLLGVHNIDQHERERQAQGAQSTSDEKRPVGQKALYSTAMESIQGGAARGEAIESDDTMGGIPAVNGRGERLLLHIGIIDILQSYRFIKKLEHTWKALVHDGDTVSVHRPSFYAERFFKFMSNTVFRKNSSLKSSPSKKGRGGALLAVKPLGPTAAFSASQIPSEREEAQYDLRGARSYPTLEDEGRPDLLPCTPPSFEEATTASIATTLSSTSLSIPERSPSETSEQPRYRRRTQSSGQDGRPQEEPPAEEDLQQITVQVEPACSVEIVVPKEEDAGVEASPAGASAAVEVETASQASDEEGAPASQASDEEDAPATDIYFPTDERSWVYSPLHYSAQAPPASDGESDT
ALK tyrosine kinase receptor (Homo sapiens), Q9UM73 [C1156Y], sequence (Q9UM73 whole entry C1156Y, looked up, the tested form may be a part): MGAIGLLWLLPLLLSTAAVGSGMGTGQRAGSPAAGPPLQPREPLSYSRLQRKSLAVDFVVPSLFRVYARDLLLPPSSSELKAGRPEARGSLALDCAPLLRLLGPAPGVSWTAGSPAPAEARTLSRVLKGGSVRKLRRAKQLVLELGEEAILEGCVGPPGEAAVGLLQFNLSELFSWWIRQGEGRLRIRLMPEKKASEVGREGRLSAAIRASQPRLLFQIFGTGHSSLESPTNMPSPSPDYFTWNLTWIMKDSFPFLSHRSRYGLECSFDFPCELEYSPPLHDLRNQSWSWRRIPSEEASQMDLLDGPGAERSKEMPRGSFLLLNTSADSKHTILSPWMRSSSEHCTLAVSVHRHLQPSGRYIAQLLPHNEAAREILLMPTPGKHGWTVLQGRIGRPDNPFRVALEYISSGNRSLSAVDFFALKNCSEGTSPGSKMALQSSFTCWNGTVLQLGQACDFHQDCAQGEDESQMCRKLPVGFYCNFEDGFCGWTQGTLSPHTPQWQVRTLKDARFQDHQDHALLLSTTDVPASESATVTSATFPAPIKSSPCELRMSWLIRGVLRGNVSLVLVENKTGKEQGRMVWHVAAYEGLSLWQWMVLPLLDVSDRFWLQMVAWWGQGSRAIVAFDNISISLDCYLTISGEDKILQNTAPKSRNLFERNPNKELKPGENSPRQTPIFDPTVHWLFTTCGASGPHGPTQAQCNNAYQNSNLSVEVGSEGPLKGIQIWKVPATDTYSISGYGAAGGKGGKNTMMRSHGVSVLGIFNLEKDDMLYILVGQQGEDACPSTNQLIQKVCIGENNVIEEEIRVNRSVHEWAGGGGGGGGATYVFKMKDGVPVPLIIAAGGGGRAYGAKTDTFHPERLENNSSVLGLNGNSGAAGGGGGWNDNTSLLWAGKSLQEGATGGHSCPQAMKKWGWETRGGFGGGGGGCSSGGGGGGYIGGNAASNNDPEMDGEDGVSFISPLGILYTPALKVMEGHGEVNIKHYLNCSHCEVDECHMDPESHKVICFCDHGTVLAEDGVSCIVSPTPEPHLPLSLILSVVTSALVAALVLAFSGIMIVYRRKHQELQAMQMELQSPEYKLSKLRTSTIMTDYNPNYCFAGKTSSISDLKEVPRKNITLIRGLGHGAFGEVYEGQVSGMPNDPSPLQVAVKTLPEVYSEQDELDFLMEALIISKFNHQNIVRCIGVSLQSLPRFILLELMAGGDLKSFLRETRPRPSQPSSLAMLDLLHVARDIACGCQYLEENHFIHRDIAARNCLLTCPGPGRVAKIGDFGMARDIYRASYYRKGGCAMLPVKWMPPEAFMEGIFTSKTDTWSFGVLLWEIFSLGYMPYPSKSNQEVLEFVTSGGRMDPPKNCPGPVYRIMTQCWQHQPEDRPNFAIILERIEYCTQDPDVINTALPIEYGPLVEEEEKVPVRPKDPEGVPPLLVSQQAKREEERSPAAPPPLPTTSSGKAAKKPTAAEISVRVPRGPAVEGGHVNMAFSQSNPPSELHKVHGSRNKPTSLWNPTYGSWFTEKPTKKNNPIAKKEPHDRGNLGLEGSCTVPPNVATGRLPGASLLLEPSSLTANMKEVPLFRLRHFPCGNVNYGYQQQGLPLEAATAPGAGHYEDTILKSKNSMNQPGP
Phosphorylase b kinase gamma catalytic chain, skeletal muscle/heart isoform (Homo sapiens), sequence (Q16816 whole entry, looked up, the tested form may be a part, canonical isoform): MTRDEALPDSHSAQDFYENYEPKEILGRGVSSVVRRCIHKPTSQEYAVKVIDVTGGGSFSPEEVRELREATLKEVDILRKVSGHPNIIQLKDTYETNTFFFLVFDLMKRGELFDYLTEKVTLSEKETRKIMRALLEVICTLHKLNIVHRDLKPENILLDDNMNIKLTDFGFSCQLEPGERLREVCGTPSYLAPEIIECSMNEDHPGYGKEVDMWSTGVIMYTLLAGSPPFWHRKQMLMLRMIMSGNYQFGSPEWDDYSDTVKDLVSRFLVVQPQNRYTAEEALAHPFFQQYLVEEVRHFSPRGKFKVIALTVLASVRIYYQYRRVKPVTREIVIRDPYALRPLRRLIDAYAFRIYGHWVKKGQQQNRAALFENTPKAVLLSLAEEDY
BDNF/NT-3 growth factors receptor (Homo sapiens), sequence (Q16620 32-822 limits assumed): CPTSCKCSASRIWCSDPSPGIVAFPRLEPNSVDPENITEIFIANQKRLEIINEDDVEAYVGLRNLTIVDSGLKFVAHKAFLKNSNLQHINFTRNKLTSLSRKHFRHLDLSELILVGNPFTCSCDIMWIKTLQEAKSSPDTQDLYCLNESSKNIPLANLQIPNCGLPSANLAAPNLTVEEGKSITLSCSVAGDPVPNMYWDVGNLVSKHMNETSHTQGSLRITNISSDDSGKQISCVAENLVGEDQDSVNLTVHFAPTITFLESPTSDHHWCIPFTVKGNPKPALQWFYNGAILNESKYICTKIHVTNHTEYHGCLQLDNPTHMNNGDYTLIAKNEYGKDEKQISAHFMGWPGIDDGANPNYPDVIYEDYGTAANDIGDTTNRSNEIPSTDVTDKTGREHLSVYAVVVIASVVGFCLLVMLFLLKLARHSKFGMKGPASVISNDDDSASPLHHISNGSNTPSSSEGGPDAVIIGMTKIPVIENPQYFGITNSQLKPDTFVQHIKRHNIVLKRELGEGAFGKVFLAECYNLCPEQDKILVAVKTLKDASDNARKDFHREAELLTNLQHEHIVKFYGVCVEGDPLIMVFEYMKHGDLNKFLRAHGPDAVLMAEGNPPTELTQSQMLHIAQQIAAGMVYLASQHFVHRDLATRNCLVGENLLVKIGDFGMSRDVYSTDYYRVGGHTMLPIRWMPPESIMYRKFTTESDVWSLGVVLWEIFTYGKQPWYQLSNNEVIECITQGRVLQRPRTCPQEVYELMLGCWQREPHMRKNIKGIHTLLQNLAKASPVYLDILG
Ephrin type-B receptor 1 (Homo sapiens), sequence (P54762 whole entry, the tested form may be a part): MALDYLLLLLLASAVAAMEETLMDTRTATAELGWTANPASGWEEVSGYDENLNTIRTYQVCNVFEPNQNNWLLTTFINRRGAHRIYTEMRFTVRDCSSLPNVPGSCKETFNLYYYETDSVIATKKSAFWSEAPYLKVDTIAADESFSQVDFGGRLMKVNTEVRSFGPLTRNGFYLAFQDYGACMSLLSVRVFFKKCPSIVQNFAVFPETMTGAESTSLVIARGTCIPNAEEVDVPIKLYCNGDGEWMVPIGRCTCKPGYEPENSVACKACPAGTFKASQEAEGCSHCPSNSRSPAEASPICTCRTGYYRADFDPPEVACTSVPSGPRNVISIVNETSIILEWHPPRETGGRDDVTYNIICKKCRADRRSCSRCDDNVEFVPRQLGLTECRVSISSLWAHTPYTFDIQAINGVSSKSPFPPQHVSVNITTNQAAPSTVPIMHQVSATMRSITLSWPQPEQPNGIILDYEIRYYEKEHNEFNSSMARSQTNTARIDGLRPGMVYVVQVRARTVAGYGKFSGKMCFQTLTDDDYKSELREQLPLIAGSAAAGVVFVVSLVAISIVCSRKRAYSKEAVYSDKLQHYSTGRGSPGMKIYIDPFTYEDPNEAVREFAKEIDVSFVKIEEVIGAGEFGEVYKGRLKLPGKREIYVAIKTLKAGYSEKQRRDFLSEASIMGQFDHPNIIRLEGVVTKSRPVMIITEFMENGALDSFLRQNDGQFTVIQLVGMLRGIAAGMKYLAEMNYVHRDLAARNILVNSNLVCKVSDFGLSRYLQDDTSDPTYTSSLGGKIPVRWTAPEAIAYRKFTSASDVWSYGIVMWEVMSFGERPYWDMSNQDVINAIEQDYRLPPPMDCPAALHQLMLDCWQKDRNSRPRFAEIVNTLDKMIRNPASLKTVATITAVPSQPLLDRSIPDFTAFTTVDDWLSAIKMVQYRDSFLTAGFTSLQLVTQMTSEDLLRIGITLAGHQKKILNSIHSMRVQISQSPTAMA
Activin receptor type-2B (Homo sapiens), sequence (Q13705 whole entry, the tested form may be a part): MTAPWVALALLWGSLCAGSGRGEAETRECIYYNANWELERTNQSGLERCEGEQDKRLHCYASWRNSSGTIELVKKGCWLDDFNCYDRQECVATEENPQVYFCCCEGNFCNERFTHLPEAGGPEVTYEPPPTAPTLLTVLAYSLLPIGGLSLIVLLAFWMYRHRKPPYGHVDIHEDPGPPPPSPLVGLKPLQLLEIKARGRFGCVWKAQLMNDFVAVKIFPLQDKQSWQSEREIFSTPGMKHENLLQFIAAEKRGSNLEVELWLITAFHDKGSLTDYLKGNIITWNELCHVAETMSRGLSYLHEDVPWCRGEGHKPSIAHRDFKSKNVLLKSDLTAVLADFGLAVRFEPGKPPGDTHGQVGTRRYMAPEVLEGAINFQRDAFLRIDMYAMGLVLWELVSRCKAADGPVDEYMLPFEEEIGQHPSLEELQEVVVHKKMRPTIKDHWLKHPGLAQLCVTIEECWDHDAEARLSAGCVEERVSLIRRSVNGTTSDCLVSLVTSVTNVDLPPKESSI

SMILES: O=C(Nc1cc(-c2cn(CCNc3c4c(nc5ccccc35)CCCC4)nn2)ccn1)Nc1cccc2c1C1CCCCN1C2=O (racemic)
- Activity [1]: 16%
- Activity [2]: 45%
- Activity [3]: 18%
- Activity [4]: 100%
- Activity [5]: 86%
- Activity [6]: 73%
- Activity (MDCK-MDR1): Non-Toxic
- Activity [7]: 67%
- Activity [8]: 36%
- Activity [9]: 30%
- Activity [10]: 100%
- Activity [11]: 100%
- Activity [12]: 78%
- Activity [13]: 69%
- Activity [14]: 99%
- Activity [15]: 77%
- Activity [16]: 1.7%
- Activity [17]: 91%
- Activity [18]: 17%
- Activity [19]: 6.2%
- Activity [20]: 100%
- Activity [21]: 99%
- Activity [22]: 54%
- Activity [23]: 38%
